Measured values: patent US20260262643A1, “HERBICIDAL BENZOXAZINES” (FMC CORPORATION, priority 2022, published 2026)

What was measured:
[1] = tested on: barnyardgrass; assay: Test C preemergence; assay type: in vivo, Echinochloa crusgalli; conditions: 0 to 100 scale (0 no effect, 100 complete control)
In short: (§1)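 Visual injury ratings on a 0–100 scale (100 = complete control) were made against untreated controls 10 days after treatment in the greenhouse. Compounds, formulated with surfactant in non-phytotoxic solvent, were sprayed on soil preemergence or onto one- to two-leaf plants 2–10 cm tall postemergence.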

[2] = tested on: blackgrass; assay: Test C preemergence; assay type: in vivo, Alopecurus myosuroides; conditions: 0 to 100 scale (0 no effect, 100 complete control)
In short: as §1

[3] = tested on: corn; assay: Test C preemergence; assay type: in vivo, Zea mays; conditions: 0 to 100 scale (0 no effect, 100 complete control)
In short: as §1

[4] = tested on: green foxtail; assay: Test C preemergence; assay type: in vivo, Setaria viridis; conditions: 0 to 100 scale (0 no effect, 100 complete control)
In short: as §1

[5] = tested on: kochia; assay: Test C preemergence; assay type: in vivo, Bassia scoparia; conditions: 0 to 100 scale (0 no effect, 100 complete control)
In short: as §1

[6] = tested on: oat, wild; assay: Test C preemergence; assay type: in vivo, Avena fatua; conditions: 0 to 100 scale (0 no effect, 100 complete control)
In short: as §1

[7] = tested on: pigweed, palmer; assay: Test C preemergence; assay type: in vivo, Amaranthus palmeri; conditions: 0 to 100 scale (0 no effect, 100 complete control)
In short: as §1

[8] = tested on: ragweed; assay: Test C preemergence; assay type: in vivo, Ambrosia artemisiifolia; conditions: 0 to 100 scale (0 no effect, 100 complete control)
In short: as §1

[9] = tested on: ryegrass, Italian; assay: Test C preemergence; assay type: in vivo, Lolium multiflorum; conditions: 0 to 100 scale (0 no effect, 100 complete control)
In short: as §1

[10] = tested on: soybean; assay: Test C preemergence; assay type: in vivo, Glycine max; conditions: 0 to 100 scale (0 no effect, 100 complete control)
In short: as §1

[11] = tested on: wheat; assay: Test C preemergence; assay type: in vivo, Triticum aestivum; conditions: 0 to 100 scale (0 no effect, 100 complete control)
In short: as §1

[12] = tested on: barnyardgrass; assay: Test C postemergence; assay type: in vivo, Echinochloa crusgalli; conditions: 10 days
In short: as §1

[13] = tested on: blackgrass; assay: Test C postemergence; assay type: in vivo, Alopecurus myosuroides; conditions: Postemergence, 500 g ai/ha, 10 days, visual 0 to 100 scale (0 no effect, 100 complete control)
In short: as §1

[14] = tested on: corn; assay: Test C postemergence; assay type: in vivo, Zea mays; conditions: 10 days
In short: as §1

[15] = tested on: green foxtail; assay: Test C postemergence; assay type: in vivo, Setaria viridis; conditions: 10 days
In short: as §1

[16] = tested on: kochia; assay: Test C postemergence; assay type: in vivo, Bassia scoparia; conditions: 10 days
In short: as §1

[17] = tested on: oat, wild; assay: Test C postemergence; assay type: in vivo, Avena fatua; conditions: 10 days
In short: as §1

[18] = tested on: pigweed, palmer; assay: Test C postemergence; assay type: in vivo, Amaranthus palmeri; conditions: 10 days
In short: as §1

[19] = tested on: ragweed; assay: Test C postemergence; assay type: in vivo, Ambrosia artemisiifolia; conditions: 10 days
In short: as §1

[20] = tested on: ryegrass, Italian; assay: Test C postemergence; assay type: in vivo, Lolium multiflorum; conditions: 10 days
In short: as §1

[21] = tested on: soybean; assay: Test C postemergence; assay type: in vivo, Glycine max; conditions: 10 days
In short: as §1

[22] = tested on: wheat; assay: Test C postemergence; assay type: in vivo, Triticum aestivum; conditions: 10 days
In short: as §1

[23] = tested on: galium; assay: Test C postemergence; assay type: in vivo, Galium aparine; conditions: 10 days
In short: as §1

[24] = tested on: horseweed; assay: Test C postemergence; assay type: in vivo, Erigeron canadensis; conditions: 10 days
In short: as §1

[25] = tested on: barnyardgrass; assay: Test D flooded paddy test; assay type: in vivo, Echinochloa crus-galli; conditions: 250 g ai/ha, applied to paddy water, visual rating after 13 to 14 days, scale 0 to 100 (0 no effect, 100 complete control)
In short: (§2)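 Visual ratings from 0, meaning no effect, to 100, meaning complete control, were assigned against untreated controls 13 to 14 days after compounds were added to the floodwater of pots kept 3 cm deep, with plants at the 2-leaf stage.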

[26] = tested on: ducksalad; assay: Test D flooded paddy test; assay type: in vivo, Heteranthera limosa; conditions: 250 g ai/ha, applied to paddy water, visual rating after 13 to 14 days, scale 0 to 100 (0 no effect, 100 complete control)
In short: as §2

[27] = tested on: rice; assay: Test D flooded paddy test; assay type: in vivo, Oryza sativa; conditions: 250 g ai/ha, applied to paddy water, visual rating after 13 to 14 days, scale 0 to 100 (0 no effect, 100 complete control)
In short: as §2

[28] = tested on: sedge, umbrella; assay: Test D flooded paddy test; assay type: in vivo, Cyperus difformis; conditions: 250 g ai/ha, applied to paddy water, visual rating after 13 to 14 days, scale 0 to 100 (0 no effect, 100 complete control)
In short: as §2

[29] = Preemergence, 500 g ai/ha, visual rating after 10 days
[30] = Test C, preemergence, 125 g ai/ha
[31] = 125 g ai/ha, postemergence, 0 to 100 scale, 0 no effect, 100 complete control
[32] = Postemergence, 500 g ai/ha, visual 0 to 100 scale (0 no effect, 100 complete control)

CC(C)=C(C)c1ncn(-c2cccc(C(=O)N3C[C@H](C)Oc4c(C)cccc43)c2)n1 [Compound 262]
Plant response rating, Barnyardgrass [1, 29]: 90
Barnyardgrass plant response rating [1, 30]: 60
Plant response rating, Blackgrass [2, 29]: 90
Blackgrass plant response rating [2, 30]: 60
Plant response rating, Corn [3, 29]: 40
Corn plant response rating [3, 30]: 40
Plant response rating, Foxtail, Green [4, 29]: 100
Foxtail, Green plant response rating [4, 30]: 100
Plant response rating, Kochia [5, 29]: 80
Kochia plant response rating [5, 30]: 40
Plant response rating, Oat, Wild [6, 29]: 80
Oat, Wild plant response rating [6, 30]: 50
Plant response rating, Pigweed, Palmer [7, 29]: 90
Pigweed, Palmer plant response rating [7, 30]: 70
Plant response rating, Ragweed [8, 29]: 60
Ragweed plant response rating [8, 30]: 0
Plant response rating, Ryegrass, Italian [9, 29]: 90
Ryegrass, Italian plant response rating [9, 30]: 70
Plant response rating, Soybean [10, 29]: 70
Soybean plant response rating [10, 30]: 30
Plant response rating, Wheat [11, 29]: 70
Wheat plant response rating [11, 30]: 20
Plant response rating, Barnyardgrass [12, 31]: 60
Plant response rating, Barnyardgrass [12, 32]: 90
Plant response rating, Blackgrass [13]: 90
Plant response rating, Corn [14, 31]: 60
Plant response rating, Corn [14, 32]: 80
Plant response rating, Foxtail, Green [15, 31]: 70
Plant response rating, Foxtail, Green [15, 32]: 90
Plant response rating, Kochia [16, 31]: 50
Plant response rating, Kochia [16, 32]: 90
Plant response rating, Oat, Wild [17, 31]: 60
Plant response rating, Oat, Wild [17, 32]: 80
Plant response rating, Pigweed, Palmer [18, 31]: 70
Plant response rating, Pigweed, Palmer [18, 32]: 90
Plant response rating, Ragweed [19, 31]: 40
Plant response rating, Ragweed [19, 32]: 70
Plant response rating, Ryegrass, Italian [20, 31]: 80
Plant response rating, Ryegrass, Italian [20, 32]: 90
Plant response rating, Soybean [21, 31]: 100
Plant response rating, Soybean [21, 32]: 100
Plant response rating, Wheat [22, 31]: 30
Plant response rating, Wheat [22, 32]: 50
Plant response rating, Galium [23, 31]: 100
Plant response rating, Galium [23, 32]: 100
Plant response rating, Horseweed [24, 31]: 10
Plant response rating, Horseweed [24, 32]: 10
Plant response rating, Barnyardgrass (Flood) [25]: 0
Plant response rating, Ducksalad (Flood) [26]: 0
Plant response rating, Rice (Flood) [27]: 0
Plant response rating, Sedge, Umbrella (Flood) [28]: 0
